In patent US5494932A, “Sulfonic stilbene derivatives in the treatment of viral disease” (Merrell Dow Pharmaceuticals Inc., priority 1991, dated 1996):
Entries after “also recorded” stand apart in the source; their conditions may differ. Where two headings read alike, the source gives them in different places.

Experiments:
[1] = test system: HIV-1 strain GB8 in JM cells; assay: Acute HIV-1 (GB8) infection of JM cells: syncytial counts and p24 antigen; format: cell-based, HIV-1 (human T cell line JM); conditions: for Mean Syncytial Counts: at day 4 p.i.
Text: When evaluated in the human T cell line JM acutely infected with the GB8 virus, DIDS, H2 DIDS and SITS (Table I) suppressed virus-induced multinucleated giant cell formation (syncytia). […] We also examined the antiviral properties of these compounds in a second host-cell/virus system, i.e., the highly CD4+ C8166 cells infected with the Haitian strain of HIV-1, RF.
The cell lines used were the semi-mature human lymphoblastoid leukemia T cell line JM, the human T-lymphoblastoid C8166 cell line, the human cutaneous T cell lymphoma line H9 and, the human T cell transformed line MT-4. Stocks of HIV-1 strains RF and GB8 (kindly provided by Dr. Graham Farrar, Center for Applied Microbiological Research, Porton Dawn, England) were prepared from chronically infected H9 cells and acutely infected JM cells, respectively. Virus stocks consisted of cell-free growth medium (RPMI 1640 plus 10% fetal calf serum) containing freshly shed virus. Virus titres were determined by a standard plaque reduction assay.
Virus stocks (strains RF or GB8) were diluted into growth medium containing various concentrations of DIDS, H2 DIDS or SITS. The required number of cells were then immediately added and the virus allowed to absorb for 2 hours at 37° C. to give a multiplicity of infection (MOI) of 0.001 infectious units/cell. The virus-infected cells were pelleted, washed three times in phosphate buffered saline (PBS), and resuspended in fresh growth medium containing the appropriate concentrations of stilbene disulfonic acids. Cells were then distributed into 24-well culture plates (Falcon) and assayed as described below for virus infection. Alternatively, cells were first infected with HIV-1 (strains RF or GB8) for 2 hours at 37° C. at the above MOI. After extensive washing, cells were replated into fresh growth medium containing various concentrations of stilbene disulfonic acids. In the above experiments, syncytia were scored between 2 and 4 days postinfection (p.i.) in triplicate using an Olympus CK2 inverted microscope. The culture fluids were recovered between 3 and 5 days p.i., clarified by low speed centrifugation (2,000 rpm) for 5 minutes and the level of HIV-1 p24 core antigen in the supernatants was determined by p24 antigen ELISA (Coulter). The concentrations of stilbene disulfonic acids giving 50% inhibition of HIV-1 growth (IC50) were determined from the dose-response curves by linear regression analysis.
(§1) Protocol: JM cells were infected with HIV-1 to give a multiplicity of infection of 0.001. Virus adsorption was for 2 hours at room temperature. The cells were washed and distributed into wells containing different concentrations of test compounds and incubated. After 2 days the cells were observed and syncytia were counted. The cell-free supernatant fluids were harvested at 4 and 6 days post infection and assayed for levels of p24 viral core antigen and after 6 days the supernatants were also titrated to determine levels of infectivity.

[2] = test system: virus-induced cell fusion (gp120-CD4 dependent); assay: Cell fusion after pretreatment of uninfected C8166 cells, washing and mixing with chronically infected H9 cells; format: cell-based, HIV-1; human H9 and C8166 cells; conditions: 100 μg/ml; overnight pretreatment, washed; 6 hour observation
Experimental: In the next experiments, CD4+ C8166 cells were pretreated overnight with either DIDS (100 μg/ml), SITS (100 μg/ml) or drug-free medium. Unabsorbed compounds were removed by repeated washings and chronically infected H9 cells were then added. […] Thus, cell washing prior to mixing with the H9 cells oblated the protective effect observed above (FIG. 1, Panel E) when 500,000 MW dextran sulfate was continually present in the assay.
Pretreatment of CD4+ C8166 cells with DIDS blocks fusion with chronically infected H9 cells. In this experiment, C8166 cells were pretreated overight with various stilbene disulfonic acids or drug-free medium (fusion control). The cells were washed, incubated with chronically infected H9 cells and syncytia were photographed at 6 hours post-mixing. Pretreatment conditions were as follows: […]: 100 μg/ml SITS; FIG. 2B: drug-free medium; and FIG. 2C: 100 μg/ml DIDS.
In pretreatment experiments, CD4^+ C8166 cells were maintained in serum-free medium (RPMI 1640 plus human transferrin 50 μg/ml, bovine insulin 20 μg/ml, bovine serum albumin 2 mg/ml) and were exposed to compound by overnight incubation. Treated cells were washed twice in fresh serum-free medium and then cocultured with chronically infected H9 cells in serum-free medium. Otherwise, cell numbers, assay conditions and scoring of syncytia were as described above.
Protocol: C8166 cells were pretreated for 2.5 hours with either DIDS, SITS or H2 DIDS (at 500 and 250 μg/ml). The cells were then washed three times and mixed with H9 cells chronically infected with HIV-1. Cell fusion was quantified after 4 and 24 hours.

[3] = test system: HIV-1; assay: Back titration of cell-free supernatants (infectivity) on fresh uninfected JM cells; format: cell-based, HIV-1 (human T cell line JM)
Experimental: as §1
*Syncytia-forming unit; cellfree supernatants from virus infected cells
having received the indicated concentration of compounds were incubated
with fresh uninfected JM cells and syncytia were scored to determine the
number of infectious units/ml.
supernatants from virusinfected control cells not having received drug

[4] = Human immunodeficiency virus 1, 96 h, 12.5 μg/ml, read-out: p24 4 days p.i., % Control
[5] = Human immunodeficiency virus 1, 96 h, 25 μg/ml, read-out: p24 4 days p.i., % Control
[6] = Human immunodeficiency virus 1, 96 h, 100 μg/ml, read-out: p24 4 days p.i., % Control
[7] = Human immunodeficiency virus 1, 144 h, read-out: P24 Antigen % Virus Control
[8] = Human immunodeficiency virus 1, 144 h, 12.5 μg/ml, read-out: p24 6 days p.i., % Control
[9] = Human immunodeficiency virus 1, 144 h, 25 µg/mL, GB8 in JM cells, day 6 p.i., read-out: P24 Antigen % Virus Control
[10] = Human immunodeficiency virus 1, 144 h, 25 μg/ml, read-out: p24 6 days p.i., % Control
[11] = Human immunodeficiency virus 1, 144 h, 50 µg/mL, GB8 in JM cells, day 6 p.i., read-out: P24 Antigen % Virus Control
[12] = Human immunodeficiency virus 1, 144 h, 50 μg/ml, read-out: p24 6 days p.i., % Control
[13] = Human immunodeficiency virus 1, 144 h, 100 µg/mL, GB8 in JM cells, day 6 p.i., read-out: P24 Antigen % Virus Control
[14] = Human immunodeficiency virus 1, 144 h, 100 μg/ml, read-out: p24 6 days p.i., % Control
[15] = JM cells acutely infected with GB8

| SMILES | Mean Syncytial Counts 2 Days p.i. ([1]; 3 μg/ml) | Mean Syncytial Counts ([1]; 6 μM) | Mean Syncytial Counts 2 Days p.i. ([1]; 6 μg/ml) | Mean Syncytial Counts ([1]; 12 μM) | Mean Syncytial Counts 2 Days p.i. ([1]; 12.5 μg/ml) | p24 4 days p.i. ([1]; 12.5 μg/ml) | p24 6 days p.i. ([1]; 12.5 μg/ml) | Mean Syncytial Counts ([1]; 25 μM) | Mean Syncytial Counts 2 Days p.i. ([1]; 25 μg/ml) | p24 4 days p.i. ([1]; 25 μg/ml) | p24 6 days p.i. ([1]; 25 μg/ml) | Mean Syncytial Counts ([1]; 50 μM) | Mean Syncytial Counts 2 Days p.i. ([1]; 50 μg/ml) | p24 4 days p.i. ([1]; 50 μg/ml) | p24 6 days p.i. ([1]; 50 μg/ml) | Mean Syncytial Counts ([1]; 100 μM) | Mean Syncytial Counts 2 Days p.i. ([1]; 100 μg/ml) | p24 6 days p.i. ([1]; 100 μg/ml) | Mean Syncytial Counts ([1]; 200 μM) | activity at 12.5 µg/mL [1, 4] | other results |
| --- | --- | --- | --- | --- | --- | --- | --- | --- | --- | --- | --- | --- | --- | --- | --- | --- | --- | --- | --- | --- | --- |
| O=S(=O)(O)c1cc(N=C=S)ccc1C=Cc1ccc(N=C=S)cc1S(=O)(=O)O [DIDS, 4,4'-diisothiocyanatostilbene-2,2'-disulfonic acid] | 114 | 114 | 101 | 101 | 31 | 110000 pg/mL | 2.44 × 10^6 pg/m. | 31 | 0 | 4700 pg/mL | 1.21 × 10^6 pg/m. | 0 | 0 | 130 pg/mL | 1.23 × 10^4 pg/m. | 0 | 0 | 4.87 × 10^2 pg/m. | 0 | > 100% | p24 4 days p.i. ([1]; 100 μg/ml): None detected; activity at 25 µg/mL [1, 5]: 6.4%; activity at 50 µg/mL ([1]; Human immunodeficiency virus 1, 96 h, 50 μg/ml, read-out: p24 4 days p.i., % Control): 0.18%; activity at 100 µg/mL [1, 6]: 0%; activity at 200 µM [1, 7]: 0.02%; activity at 12.5 µg/mL [1, 8]: > 100%; activity at 25 µg/mL [1, 9]: 100%; activity at 25 µg/mL [1, 10]: 56%; activity at 50 µg/mL [1, 11]: 6.4%; activity at 50 µg/mL [1, 12]: 0.56%; activity at 100 µg/mL [1, 13]: 0.56%; activity at 100 µg/mL [1, 14]: 0.02%; inhibition of p24 viral core antigen [1, 15]: dose-dependent inhibition; virus-induced multinucleated giant cell formation (syncytia) [1, 15]: suppressed; order of antiviral potency ([1]; in all three host cell/virus systems (JM/GB8, C8166/RF, MT-4/RF)): DIDS>H2 DIDS>>SITS; syncytia / fusion after pretreatment [2]: remained syncytia-free; also recorded: blocks fusion; Back titration of cell-free supernatants at 6 days p.i. ([3]; 12.5 μg/ml): 2.4 × 10^3 SFUs/ml; Back titration of cell-free supernatants at 6 days p.i. ([3]; 50 μg/ml): < 10^1 SFUs/ml; Back titration of cell-free supernatants at 6 days p.i. ([3]; 100 μg/ml): < 10^1 SFUs/ml; viral infectivity in the cell-free supernatants ([3]; data not shown): absence of viral infectivity |
| O=S(=O)(O)c1cc(N=C=S)ccc1CCc1ccc(N=C=S)cc1S(=O)(=O)O [H2 DIDS, 4,4'-diisothiocyanatodihydrostilbene-2,2'-disulfonic acid] | 107 | 107 | 97 | 97 | 71 | 94000 pg/mL | 8.51 × 10^6 pg/m. | 71 | 7 | 32000 pg/mL | 2.66 × 10^6 pg/m. | 7 | 0 | 70 pg/mL | 3.77 × 10^2 pg/m. | 0 | 0 | 6.48 × 10^2 pg/m. | 0 | > 100% | activity at 50 µg/mL ([1]; Human immunodeficiency virus 1, 96 h, read-out: p24 4 days p.i., % Control): 0.01%; activity at 25 µg/mL [1, 5]: 43%; activity at 100 µg/mL [1, 6]: 0%; activity at 200 µM [1, 7]: 0%; activity at 12 µg/mL ([1]; Human immunodeficiency virus 1, 144 h, 12 µg/mL, GB8 in JM cells, day 6 p.i., read-out: P24 Antigen % Virus Control): 100%; activity at 12.5 µg/mL [1, 8]: > 100%; activity at 25 µg/mL [1, 9]: 100%; activity at 25 µg/mL [1, 10]: > 100%; activity at 50 µg/mL [1, 11]: 43%; activity at 50 µg/mL [1, 12]: 0.02%; activity at 100 µg/mL [1, 13]: 0.01%; activity at 100 µg/mL [1, 14]: 0.03% |
